{"source": "paper PMC6458995", "about": "“MAP4K4 Inhibition Promotes Survival of Human Stem Cell-Derived Cardiomyocytes and Reduces Infarct Size In Vivo” (Cell Stem Cell, 2019)", "key": {"MLK3/MAP3K11": {"molecular_target": "MLK3/MAP3K11 (Homo sapiens, UniProt Q16584)", "sequence (Q16584 whole entry)": "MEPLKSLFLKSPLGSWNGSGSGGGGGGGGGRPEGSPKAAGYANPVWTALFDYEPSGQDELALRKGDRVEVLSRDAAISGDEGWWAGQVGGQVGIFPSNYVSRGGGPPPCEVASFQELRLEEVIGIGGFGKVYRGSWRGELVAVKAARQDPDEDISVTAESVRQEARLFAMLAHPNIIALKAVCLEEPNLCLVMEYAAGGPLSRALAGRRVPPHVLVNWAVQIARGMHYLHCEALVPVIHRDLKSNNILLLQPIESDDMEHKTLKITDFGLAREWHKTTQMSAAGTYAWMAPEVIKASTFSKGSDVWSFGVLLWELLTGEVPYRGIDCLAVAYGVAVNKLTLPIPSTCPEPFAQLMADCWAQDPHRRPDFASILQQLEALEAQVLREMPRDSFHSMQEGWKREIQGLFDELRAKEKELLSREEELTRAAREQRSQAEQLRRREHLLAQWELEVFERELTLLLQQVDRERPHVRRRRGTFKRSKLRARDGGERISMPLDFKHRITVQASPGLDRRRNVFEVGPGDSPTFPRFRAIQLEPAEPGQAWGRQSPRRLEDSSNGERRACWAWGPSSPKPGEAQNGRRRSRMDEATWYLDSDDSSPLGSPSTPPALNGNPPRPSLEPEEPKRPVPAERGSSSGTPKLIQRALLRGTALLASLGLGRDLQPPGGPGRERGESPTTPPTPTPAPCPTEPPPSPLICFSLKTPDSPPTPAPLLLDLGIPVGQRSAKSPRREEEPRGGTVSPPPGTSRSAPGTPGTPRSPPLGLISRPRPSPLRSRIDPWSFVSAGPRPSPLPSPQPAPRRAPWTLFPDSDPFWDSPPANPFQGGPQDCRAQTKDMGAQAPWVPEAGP", "assay": "HTRF Transcreener ADP kinase assay", "format": "biochemical", "conditions": "for IC50: HTRF Transcreener ADP assay", "method": "(§1) MAP4K4 kinase activity was monitored using the CisBio HTRF Transcreener ADP assay, a competitive immunoassay with a reproducible Z’ > 0.6. In the detection step, endogenous ADP and d2-labeled ADP compete for binding an anti-ADP monoclonal antibody labeled with Eu^3+ cryptate. A ratiometric fluorescent readout is used at 665 and 620 nm. […] Assays were run in Greiner low volume plates with a final reaction volume of 10 μl. Percent inhibition was calculated from 100% activity of MAP4K4 (DMSO only) and 0% activity (no enzyme added). Data were either reported as % inhibition at a single dose or as pIC50 values derived from dose response curves (pIC50 = -log[IC50]).\n(§2) Kinase selectivity profiling was performed by the International Centre for Kinase Profiling, MRC Protein Phosphorylation and Ubiquitylation Unit (141 kinases; Premier Screen, http://www.kinase-screen.mrc.ac.uk), using a [γ-^33P]ATP filter binding assay ([Bain et al., 2007]). Compounds were screened at 1 μM. For key hits, pIC50 values were then determined by HTRF as above. More complete kinome profiling was performed by Reaction Biology (376 kinases). Stability in mouse and human liver microsomes was determined by Cyprotex."}, "GLK/MAP4K3": {"molecular_target": "T1, GLK/MAP4K3 (Homo sapiens, UniProt Q8IVH8)", "T1 sequence (Q8IVH8 1-894)": "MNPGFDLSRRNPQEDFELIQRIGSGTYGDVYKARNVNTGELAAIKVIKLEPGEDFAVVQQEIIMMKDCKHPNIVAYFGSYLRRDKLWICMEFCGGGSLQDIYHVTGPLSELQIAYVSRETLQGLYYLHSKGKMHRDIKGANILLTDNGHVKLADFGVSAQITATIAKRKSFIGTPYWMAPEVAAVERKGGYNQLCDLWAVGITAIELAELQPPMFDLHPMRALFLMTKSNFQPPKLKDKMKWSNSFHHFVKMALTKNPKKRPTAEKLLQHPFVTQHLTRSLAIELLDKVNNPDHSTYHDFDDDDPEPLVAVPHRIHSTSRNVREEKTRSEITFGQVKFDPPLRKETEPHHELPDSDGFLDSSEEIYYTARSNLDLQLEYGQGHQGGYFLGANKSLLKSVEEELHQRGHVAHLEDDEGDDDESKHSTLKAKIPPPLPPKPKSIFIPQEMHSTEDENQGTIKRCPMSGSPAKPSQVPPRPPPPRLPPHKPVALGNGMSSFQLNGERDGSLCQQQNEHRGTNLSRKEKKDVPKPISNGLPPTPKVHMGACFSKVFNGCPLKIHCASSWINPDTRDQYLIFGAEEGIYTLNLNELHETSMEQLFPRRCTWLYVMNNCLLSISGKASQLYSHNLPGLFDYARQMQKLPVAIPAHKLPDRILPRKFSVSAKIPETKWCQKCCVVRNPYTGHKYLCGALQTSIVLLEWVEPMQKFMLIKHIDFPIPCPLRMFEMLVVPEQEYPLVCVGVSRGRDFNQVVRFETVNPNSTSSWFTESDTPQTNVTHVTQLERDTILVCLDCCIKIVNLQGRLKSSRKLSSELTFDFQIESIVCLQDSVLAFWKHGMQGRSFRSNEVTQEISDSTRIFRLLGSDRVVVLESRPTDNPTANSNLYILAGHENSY", "assay": "HTRF Transcreener ADP kinase assay", "format": "biochemical", "conditions": "for IC50: HTRF Transcreener ADP assay", "method": "as §1, §2"}, "Aurora B": {"molecular_target": "T2, Aurora B (Homo sapiens, UniProt Q96GD4)", "T2 construct": "lines 1-140) and Reaction Biology", "T2 sequence (Q96GD4 whole entry)": "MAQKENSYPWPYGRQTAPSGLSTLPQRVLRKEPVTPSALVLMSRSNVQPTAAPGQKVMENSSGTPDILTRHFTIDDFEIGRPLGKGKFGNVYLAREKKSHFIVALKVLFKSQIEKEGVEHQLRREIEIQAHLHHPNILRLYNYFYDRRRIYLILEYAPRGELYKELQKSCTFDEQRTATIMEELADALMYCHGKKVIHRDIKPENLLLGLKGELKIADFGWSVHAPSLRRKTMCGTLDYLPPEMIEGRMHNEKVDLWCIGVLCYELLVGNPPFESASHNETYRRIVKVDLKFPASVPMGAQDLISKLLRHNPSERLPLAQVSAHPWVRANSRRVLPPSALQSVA", "assay": "HTRF Transcreener ADP kinase assay", "format": "biochemical", "method": "as §1, §2"}, "KHS/MAP4K5": {"molecular_target": "KHS/MAP4K5 (Homo sapiens, UniProt Q9Y4K4)", "sequence (Q9Y4K4 whole entry)": "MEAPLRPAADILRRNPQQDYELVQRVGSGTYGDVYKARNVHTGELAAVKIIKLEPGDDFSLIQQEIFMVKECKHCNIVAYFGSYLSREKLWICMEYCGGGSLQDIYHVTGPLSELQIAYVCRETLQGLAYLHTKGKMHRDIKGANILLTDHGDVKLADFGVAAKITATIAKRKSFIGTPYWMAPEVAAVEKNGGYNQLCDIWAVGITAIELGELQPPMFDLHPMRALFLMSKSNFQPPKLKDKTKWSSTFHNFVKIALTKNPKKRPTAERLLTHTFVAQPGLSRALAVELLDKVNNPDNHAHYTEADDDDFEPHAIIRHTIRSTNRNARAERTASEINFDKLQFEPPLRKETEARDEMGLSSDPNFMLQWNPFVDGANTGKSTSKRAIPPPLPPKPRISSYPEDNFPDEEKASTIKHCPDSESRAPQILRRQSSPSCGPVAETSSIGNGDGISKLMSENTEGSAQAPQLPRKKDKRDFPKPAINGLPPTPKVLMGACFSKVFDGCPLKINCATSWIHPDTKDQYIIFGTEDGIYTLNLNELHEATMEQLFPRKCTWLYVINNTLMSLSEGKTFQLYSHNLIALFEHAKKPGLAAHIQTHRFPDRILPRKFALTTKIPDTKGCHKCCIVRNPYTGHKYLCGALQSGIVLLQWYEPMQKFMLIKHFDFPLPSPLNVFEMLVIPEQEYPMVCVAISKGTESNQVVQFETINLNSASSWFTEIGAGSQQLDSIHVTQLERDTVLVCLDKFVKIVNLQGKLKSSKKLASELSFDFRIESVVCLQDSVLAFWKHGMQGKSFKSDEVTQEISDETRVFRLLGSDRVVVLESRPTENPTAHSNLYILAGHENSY", "assay": "HTRF Transcreener ADP kinase assay", "format": "biochemical", "conditions": "for IC50: HTRF Transcreener ADP assay", "method": "as §1, §2"}, "GCK/MAP4K2": {"molecular_target": "T3, GCK/MAP4K2 (Homo sapiens, UniProt Q12851)", "T3 sequence (Q12851 1-820)": "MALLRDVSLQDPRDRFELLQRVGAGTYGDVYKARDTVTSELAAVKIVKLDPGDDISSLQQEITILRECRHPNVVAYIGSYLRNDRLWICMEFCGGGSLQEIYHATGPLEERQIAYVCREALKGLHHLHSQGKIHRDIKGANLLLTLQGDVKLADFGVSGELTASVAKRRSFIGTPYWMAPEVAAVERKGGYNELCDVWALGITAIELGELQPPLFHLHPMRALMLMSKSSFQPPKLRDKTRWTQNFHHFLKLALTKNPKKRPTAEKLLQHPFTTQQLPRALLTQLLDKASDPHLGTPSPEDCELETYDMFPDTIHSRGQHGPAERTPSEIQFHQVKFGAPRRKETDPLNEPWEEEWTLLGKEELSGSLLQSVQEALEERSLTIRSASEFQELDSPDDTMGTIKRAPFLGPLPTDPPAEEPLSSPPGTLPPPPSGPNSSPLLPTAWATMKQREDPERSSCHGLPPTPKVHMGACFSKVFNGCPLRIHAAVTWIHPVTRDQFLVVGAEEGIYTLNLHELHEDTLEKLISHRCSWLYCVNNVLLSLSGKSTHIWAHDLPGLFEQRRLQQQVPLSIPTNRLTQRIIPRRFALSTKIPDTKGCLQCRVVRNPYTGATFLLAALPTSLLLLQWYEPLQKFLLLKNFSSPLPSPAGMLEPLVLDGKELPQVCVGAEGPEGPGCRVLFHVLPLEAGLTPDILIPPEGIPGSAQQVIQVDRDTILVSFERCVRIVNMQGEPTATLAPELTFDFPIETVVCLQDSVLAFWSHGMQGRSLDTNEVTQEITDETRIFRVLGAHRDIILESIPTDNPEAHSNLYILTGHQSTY", "assay": "HTRF Transcreener ADP kinase assay", "format": "biochemical", "conditions": "for IC50: HTRF Transcreener ADP assay", "method": "as §1, §2"}, "ABL1": {"molecular_target": "ABL1 (Homo sapiens, UniProt P00519)", "sequence (P00519 whole entry)": "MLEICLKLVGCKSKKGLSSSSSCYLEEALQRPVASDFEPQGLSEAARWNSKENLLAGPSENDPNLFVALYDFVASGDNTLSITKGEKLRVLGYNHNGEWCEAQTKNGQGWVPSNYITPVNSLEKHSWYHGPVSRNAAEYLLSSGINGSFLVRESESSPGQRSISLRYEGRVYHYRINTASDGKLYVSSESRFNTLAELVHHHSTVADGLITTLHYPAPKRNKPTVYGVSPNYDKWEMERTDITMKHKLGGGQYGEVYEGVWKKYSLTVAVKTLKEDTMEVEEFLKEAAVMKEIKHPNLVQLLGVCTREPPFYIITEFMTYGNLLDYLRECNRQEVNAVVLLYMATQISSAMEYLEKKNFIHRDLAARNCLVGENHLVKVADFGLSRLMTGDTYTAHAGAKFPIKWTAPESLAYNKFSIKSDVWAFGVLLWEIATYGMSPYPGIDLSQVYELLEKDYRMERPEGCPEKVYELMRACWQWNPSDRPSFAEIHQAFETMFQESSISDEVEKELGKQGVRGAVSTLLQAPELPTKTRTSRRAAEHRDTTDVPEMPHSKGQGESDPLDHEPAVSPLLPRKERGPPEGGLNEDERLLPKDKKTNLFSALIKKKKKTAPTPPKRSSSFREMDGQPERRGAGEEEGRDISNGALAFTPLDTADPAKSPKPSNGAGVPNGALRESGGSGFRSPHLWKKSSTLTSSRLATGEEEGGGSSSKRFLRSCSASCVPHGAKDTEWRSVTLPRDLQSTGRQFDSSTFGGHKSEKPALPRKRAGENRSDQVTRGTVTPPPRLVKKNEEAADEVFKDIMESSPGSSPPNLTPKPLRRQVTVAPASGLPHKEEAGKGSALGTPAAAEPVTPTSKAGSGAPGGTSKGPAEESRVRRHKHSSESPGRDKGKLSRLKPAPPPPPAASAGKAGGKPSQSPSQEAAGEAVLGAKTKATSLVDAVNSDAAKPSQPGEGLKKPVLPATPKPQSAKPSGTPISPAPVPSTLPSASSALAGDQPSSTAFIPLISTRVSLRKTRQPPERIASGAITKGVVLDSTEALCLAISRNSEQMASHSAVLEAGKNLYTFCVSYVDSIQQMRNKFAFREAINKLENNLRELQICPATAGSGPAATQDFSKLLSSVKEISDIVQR", "assay": "HTRF Transcreener ADP kinase assay", "format": "biochemical", "conditions": "for IC50: HTRF Transcreener ADP assay", "method": "as §1, §2"}, "GSK3β": {"molecular_target": "GSK3β (Homo sapiens, UniProt P49841)", "sequence (P49841 whole entry)": "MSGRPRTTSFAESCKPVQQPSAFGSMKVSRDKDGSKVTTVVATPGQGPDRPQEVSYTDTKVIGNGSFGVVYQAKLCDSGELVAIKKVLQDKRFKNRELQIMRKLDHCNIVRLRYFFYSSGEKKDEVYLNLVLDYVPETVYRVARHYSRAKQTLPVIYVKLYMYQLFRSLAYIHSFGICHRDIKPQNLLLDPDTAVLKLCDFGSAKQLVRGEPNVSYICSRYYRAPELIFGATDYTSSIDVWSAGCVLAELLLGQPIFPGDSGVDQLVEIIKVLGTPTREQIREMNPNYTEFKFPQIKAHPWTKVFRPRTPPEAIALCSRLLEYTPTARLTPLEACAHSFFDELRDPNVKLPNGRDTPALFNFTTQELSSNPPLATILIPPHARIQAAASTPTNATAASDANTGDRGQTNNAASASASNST", "assay": "HTRF Transcreener ADP kinase assay", "format": "biochemical", "conditions": "for IC50: HTRF Transcreener ADP assay", "method": "as §1, §2"}, "cardiac MAP4K4": {"molecular_target": "cardiac MAP4K4 (Mus musculus, UniProt P97820)", "sequence (P97820 2-310 limits assumed)": "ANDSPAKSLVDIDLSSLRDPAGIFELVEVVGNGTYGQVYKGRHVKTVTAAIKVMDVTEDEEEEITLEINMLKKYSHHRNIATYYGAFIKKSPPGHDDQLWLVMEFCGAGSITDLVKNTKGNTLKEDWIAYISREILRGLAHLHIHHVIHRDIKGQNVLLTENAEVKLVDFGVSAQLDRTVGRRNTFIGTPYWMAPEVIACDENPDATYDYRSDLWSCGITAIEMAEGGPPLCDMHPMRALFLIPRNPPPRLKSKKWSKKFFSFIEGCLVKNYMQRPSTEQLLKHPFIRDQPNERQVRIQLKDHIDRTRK", "assay": "Target engagement in vivo (desthiobiotin-ATP probe on cardiac lysates after oral dosing)", "conditions": "dose-response and time course"}, "VEGFR": {"test_system": "VEGFR", "assay": "HTRF Transcreener ADP kinase assay", "format": "biochemical, human"}}}
{"smiles": "Oc1ncnc2c1c(-c1ccccc1)cn2-c1ccccc1", "note": "[F1386-0303, 5,7-diphenyl-7H-pyrrolo[2,3-d]pyrimidin-4-ol]", "values": [{"measurement": "IC50", "setting": "MLK3/MAP3K11; MLK3/MAP3K11", "value": 813, "unit": "nM"}, {"measurement": "IC50", "setting": "GLK/MAP4K3; GLK/MAP4K3", "value": 30.2, "unit": "µM"}, {"measurement": "IC50", "setting": "Aurora B; HTRF Transcreener ADP assay", "value": 13.2, "unit": "µM"}, {"measurement": "IC50", "setting": "KHS/MAP4K5; KHS/MAP4K5", "value": 6.03, "unit": "µM"}, {"measurement": "IC50", "setting": "GCK/MAP4K2; GCK/MAP4K2", "value": 1230, "unit": "nM"}, {"measurement": "IC50", "setting": "ABL1; ABL1", "value": 30.2, "unit": "µM"}, {"measurement": "IC50", "setting": "GSK3β; GSK3β", "value": 26.9, "unit": "µM"}]}
{"smiles": "COCCOc1ccc(-c2cn(-c3ccccc3)c3nc[nH]c(=O)c23)cc1", "note": "[DMX-5804, 5-[4-(2-methoxy-ethoxy)-phenyl]-7-phenyl-3,7-dihydro-pyrrolo[2,3-d]pyrimidin-4-one]", "values": [{"measurement": "IC50", "setting": "MLK3/MAP3K11; MLK3/MAP3K11", "value": 102, "unit": "nM"}, {"measurement": "Fold Selectivity", "setting": "MLK3/MAP3K11; MLK3/MAP3K11 versus MAP4K4", "value": 36}, {"measurement": "DMX-5804 vs F1386-0303", "setting": "MLK3/MAP3K11; ratio of fold selectivity, MLK3/MAP3K11", "value": 1.57}, {"measurement": "IC50", "setting": "GLK/MAP4K3; GLK/MAP4K3", "value": 11.2, "unit": "µM"}, {"measurement": "Fold Selectivity", "setting": "GLK/MAP4K3; GLK/MAP4K3 versus MAP4K4", "value": 3981}, {"measurement": "DMX-5804 vs F1386-0303", "setting": "GLK/MAP4K3; ratio of fold selectivity, GLK/MAP4K3", "value": 4.57}, {"measurement": "DMX-5804 vs F1386-0303", "setting": "Aurora B; ratio of fold selectivity", "value": 1.47}, {"measurement": "IC50", "setting": "KHS/MAP4K5; KHS/MAP4K5", "value": 0.437, "unit": "µM"}, {"measurement": "Fold Selectivity", "setting": "KHS/MAP4K5; KHS/MAP4K5 versus MAP4K4", "value": 153}, {"measurement": "DMX-5804 vs F1386-0303", "setting": "KHS/MAP4K5; ratio of fold selectivity, KHS/MAP4K5", "value": 0.88}, {"measurement": "IC50", "setting": "GCK/MAP4K2; GCK/MAP4K2", "value": 316, "unit": "nM"}, {"measurement": "Fold Selectivity", "setting": "GCK/MAP4K2; GCK/MAP4K2 versus MAP4K4", "value": 112}, {"measurement": "DMX-5804 vs F1386-0303", "setting": "GCK/MAP4K2; ratio of fold selectivity, GCK/MAP4K2", "value": 3.20}, {"measurement": "IC50", "setting": "ABL1; ABL1", "value": 1.58, "unit": "µM"}, {"measurement": "Fold Selectivity", "setting": "ABL1; ABL1 versus MAP4K4", "value": 560}, {"measurement": "DMX-5804 vs F1386-0303", "setting": "ABL1; ratio of fold selectivity, ABL1", "value": 0.65}, {"measurement": "Fold Selectivity", "setting": "GSK3β; GSK3β versus MAP4K4", "value": 7762}, {"measurement": "IC50", "setting": "GSK3β; GSK3β", "value": 21.9, "unit": "µM"}, {"measurement": "DMX-5804 vs F1386-0303", "setting": "GSK3β; ratio of fold selectivity, GSK3β", "value": 10.00}, {"measurement": "inhibition of ATP binding to cardiac MAP4K4 in vivo", "setting": "cardiac MAP4K4", "value": "substantiated"}, {"measurement": "Fold Selectivity", "setting": "VEGFR; VEGFR versus MAP4K4", "value": 675}, {"measurement": "pIC50", "setting": "VEGFR; VEGFR, HTRF Transcreener ADP assay", "value": 5.72}, {"measurement": "DMX-5804 vs F1386-0303", "setting": "VEGFR; ratio of fold selectivity, VEGFR", "value": 12.27}]}
